These results are taken from the pKa sets of Baltruschat and Czodrowski (2020).

`Oc1ccccc1O`: the pKa (acidic group) worked out at 9.33.

`[NH3+]CCCNCCC[NH3+]` showed a pKa (basic group) of 8.08. The same measure, in the same setting: under `OC1C=CC=CC=C1` stands -7. Regarding `Cc1ccc([P+](c2ccc(C)cc2)(c2ccc(C)cc2)C2c3ccccc3-c3ccccc32)cc1`, the pKa (acidic group) was found to be 9.64.

For `CCN(CC)CCNc1nc(C)nc(Nc2ccc(Cl)cc2)n1`, the pKa (basic group) was determined as 9.3. `OC[C@@H]1CCN2CC[C@H](O)[C@H]12`: the pKa (basic group) was 10.2. Same read-out and setting: with `C[NH+]1CCCC1c1cncc2[nH]c3ccccc3c12` (stereo unspecified) the figure was 5.17. In the case of `N[C@H]1CCCC[C@H]1C(=O)Oc1ccc([N+](=O)[O-])cc1`, the pKa (basic group) turned out to be 8.42. `Cc1cc(I)ccc1C(=O)O` came in with a pKa (acidic group) of 3.79. The compound `COC1CC2CCN1CC2` (stereo unspecified) registered a pKa (basic group) of 8.87. On to `NC(=O)/C=C(\O)c1ccccn1`, for which the pKa (basic group) worked out at 8.23.

Under “basic group”, `[O-]c1ncnc2cccnc12` displayed a pKa of 8.95. The compound `CC1CN=C(C(C)(C)C)S1` (stereo unspecified) displayed a pKa (basic group) of 5.02. `Cc1cc(C)c(O)c([N+](=O)[O-])c1` came in with a pKa (acidic group) of 7.98. For the setting “basic group”, `Cc1cc(-c2ccc([NH3+])c(C)c2)ccc1N` had a pKa of 3.38. Still for that read-out and setting: with `O=[N+]([O-])c1ccc([O-])c(CN2CCCCC2)c1` the figure was 10.5; with `Nc1cc(/C=C/c2ccccc2)nc(/C=C/c2ccccc2)c1`, 8.6. For the compound `C=C[C@]1(O)C[C@@H](C)N[C@H]2CCCC[C@@H]21`, under “basic group”, the pKa was determined as 9.51.

As to `C[NH+]1CCCC1c1ccc(Cl)nc1` (stereo unspecified), the pKa (basic group) is -1.3. For the setting “acidic group”, `CC(=O)CC(=O)C(C)(C)C` came in with a pKa of 9.94. In the case of `COc1ccc(S(=O)(=O)CCN2CCOCC2)c(OC)c1OC`, under “basic group”, the pKa was found to be 4.89.

Regarding `CSc1ccc2ncccc2c1`, for the setting “basic group”, the pKa came out at 4.75. For the compound `c1ccc(-c2cc3cccnc3c3ncccc23)cc1`, the pKa (basic group) amounted to 4.72.

`CN(C)c1ccc(Cl)cc1`: the pKa (basic group) stood at 4.39.

`N#Cc1ccc(S(=O)(=O)NCc2ccccc2)cc1` came in with a pKa (acidic group) of 10.3. As for `CCCCCCCCCCCCNc1ccccc1`, the pKa (basic group) came to 4.12.

Take `Cn1c(=O)[nH]c2nc[nH]c2c1=O`: the pKa is, setting by setting: (acidic group) 7.88; (basic group) 1.19. Compound `Oc1cc(Cl)cc(Cl)c1` showed a pKa (acidic group) of 8.07. Still for that read-out and setting: under `CC1=C/C(=N\c2ccc(O)cc2)C(C(C)C)=CC1=O` stands 8.85. Compound `C[C@@H]1CCC[C@H](C(=O)O)C1` came in with a pKa (acidic group) of 4.88. In the case of `COc1ccc(N)cc1C[NH3+]`, under “basic group”, the pKa came to 5.24.

As to `O=C([O-])CCC(=O)C=C=Cc1ccccc1`, under “acidic group”, the pKa amounted to 13.3. Still for that read-out and setting: under `O=C(O)C1(O)CCCCCC1` stands 4.04. `O=C(O[C@@H]1C[C@H]2CC[C@@H](C1)N2)[C@H](CO)c1ccccc1` registered a pKa (basic group) of 10.3.

`Cc1cc(C(F)(F)F)n[nH]1`: the pKa was 12.3 (acidic group) and -0.5 (basic group). In the same order, the values of `Oc1cccc2ncccc12` are 8.54 and 5.2. For the compound `CN1C[C@@H](C(=O)[O-])C[C@H]2c3cccc4[nH]cc(c34)C[C@@H]21`, the pKa (basic group) was 8.47. In turn, `O=[N+]([O-])c1ccc([Se](=O)O)cc1` yielded a pKa (acidic group) of 4.

As for `C1CCN(C2CC[NH2+]CC2)CC1`, the pKa (basic group) amounted to 7.97.

Regarding `C#CCCCCCCN`, the pKa (basic group) was determined as 10.7. Same read-out and setting: under `CCN(CC)c1ncnc2[nH]ncc12` stands 4.71; under `[S-]c1cnc2cncnc2n1`, 5.5. `CCCCOc1ccc(O)cc1` gave a pKa (acidic group) of 10.2. Compound `Cc1ccc(C2NCCS2)cc1` (stereo unspecified) yielded a pKa (basic group) of 5.35. Compound `c1ccc(CNc2nnc(-c3ccccc3)s2)cc1` had a pKa (acidic group) of 11.5. Still for that read-out and setting: with `CCC(CC(C)C)OO` (stereo unspecified) the figure was 12.8; with `Nc1ccc(S(=O)(=O)Nc2ccc(N)cn2)cc1`, 8.47. In turn, `OCCCCCc1cccnc1` showed a pKa (basic group) of 5.72. For the setting “acidic group”, `Oc1cc[n+](OCc2ccccc2)cc1` displayed a pKa of 2.58. With `Oc1cccc2nnccc12`, the pKa by setting is: (acidic group) 7.4; (basic group) 1.92. On to `Cc1[nH]cnc1CSCCNC(=[NH2+])NCCCc1c[nH]cn1`, for which, under “basic group”, the pKa was 7.26. Turning to `OCCNc1nc(NCCO)nc(NCCO)n1`, the pKa (basic group) was 5.19. The same measure, in the same setting: with `Cc1ncc2nccnc2n1` the figure was 4.87; with `c1nc(Cc2c[nH]c(Cc3nc(Cc4cnc[nH]4)c[nH]3)[nH+]2)c[nH]1`, 6.66; with `[O-]c1ccccn1`, 11.7.

For the compound `Cc1cccc(C(=O)[O-])n1`, under “basic group”, the pKa worked out at 5.8. In turn, `c1nc(Cc2c[nH]c(Cc3nc(Cc4c[nH+]c[nH]4)c[nH]3)[nH+]2)c[nH]1` displayed a pKa (basic group) of 5.43. Same read-out and setting: with `C[NH+](C)C[C@@H]1[C@@H](N)[C@]2(C)CC[C@@H]1C2(C)C` the figure was 7.5; with `Cc1nc(CO)[nH]c1C`, 7.88. The compound `CCC1C(=O)c2ccccc2C1=O` showed a pKa (acidic group) of 6.5. The same measure, in the same setting: with `C[NH+](C)CCCCCCCCCCNC(=O)/C=N/O` the figure was 9.02.

Take `CCCCCCN(CC(O)CC)CC(O)CC` (stereo unspecified): the pKa (basic group) came out at 8.6. Still for that read-out and setting: under `NC(=O)CCCCc1cccnc1` stands 5.6; under `CCCN(CCC)CCC`, 10.5.

With `Cc1ccc(O)c(O)c1`, the pKa (acidic group) is 9.62. With `Nc1ccc(I)cc1`, for the setting “basic group”, the pKa was 3.79. Take `Sc1[nH+]ccc2ccccc12`: for the setting “acidic group”, the pKa is -1.9.

One may read the pKa as the negative logarithm of the acid dissociation constant. Low readings indicate a stronger acid or weaker base, high ones a weaker acid or stronger base.
